Entries after “also recorded” stand apart in the source; their conditions may differ.
Tests used:
[1] = tested on: CCl4-induced liver fibrosis mouse model; experiment: CCl4-induced liver fibrosis mouse model; type: in vivo, mouse (male C57BL/6)
Text: Hepatic fibrosis is an outcome of many chronic liver diseases, including hepatitis B virus, hepatitis C virus, alcoholic liver disease, non-alcoholic steatohepatitis and diverse chronic intoxication. It was thus desired to evaluate the effect of Compound I on murine CCl4-induced liver fibrosis. Intoxication with CCl4 results in hepatocyte damage, necrosis, inflammation, and fibrosis, which spreads to link the vascular structures that feed into and drain the hepatic sinusoid (the portal tract and central vein radical, respectively), and over 8-30 weeks results in the development of fibrosis to hepatocellular carcinoma. Therefore, evaluation of candidate antifibrotic drugs such as Compound I can be undertaken by treatment of the mice at appropriate time points and histologic, biochemical and cellular readouts may be used to monitor candidate drug efficacy in this model.
CCl4 (10% in corn oil, 2 ml/kg) was intraperitoneally injected twice a week for 16 weeks in male C57BL/6. Compound I (200 mg/kg) was orally administered every day from day 1 to day 113. Mice were euthanasized and histology and liver fibrotic markers were analyzed.
To determine if Compound I has an effect on liver fibrosis, hydroxyproline level was used to measure the collagen content in the tissue, which is indicative of liver fibrosis.
The reduction of collagen level in liver tissue was also observed in histological micrographs using the Masson's Trichrome staining.
The Masson's trichrome stain the cytoplasm, keratin, muscle fibers and intracellular fibers in red colour; nuclei in black colour and collagen (fibrous tissue) in blue color.
Another experiment has been performed with Compound 1 and Compound V where CCL4 (10% in olive oil, 2 ml/kg) was intraperitoneally injected twice a week for 8 weeks in male C57BL/6. Compound 1 and compound V were orally administered (100 and 200 mg/kg) every day from day 1 to day 58. Mice were euthanasized and collagen content (marker of fibrosis) in the liver was quantified by histomorphometry using Masson's trichrome staining.

[2] = tested on: collagen 1 mRNA in HK-2 cells (epithelial cells); experiment: Inhibition of collagen mRNA in TGF-β-treated HK-2 epithelial cells; type: cell-based; settings: Homo sapiens, HK-2, compound 0.5 mM
Protocol: (§1) CTGF, collagen 1 and α-SMA are fibrotic markers produced by activated fibroblasts and by epithelial cells that undergo to epithelial-mesenchymal transition (EMT).
(§2) Table 2: Percentage of inhibition of collagen in epithelial cells (HK2 cells) and fibroblasts (NHDF) and percentage of inhibition of α-SMA in fibroblasts (NRK-49F and NHDF) has been determined for several compounds according the invention. In all cases, the mRNA of collagen and α-SMA has been measured, and the inhibition was evaluated in presence of a respective concentration of the tested compound. The compounds have been tested at different concentrations [mM]. All compounds reduce the expression of collagen and α-SMA in HK-2, NHDF and NRK-49F cells.

α-SMA mRNA in NHDF cells = experiment: Inhibition of α-SMA mRNA in TGF-β-activated NHDF fibroblasts; type: cell-based; settings: Homo sapiens, compound 0.5 mM
Protocol: as §1, §2

[3] = tested on: α-SMA mRNA in NRK-49F cells; experiment: Inhibition of α-SMA mRNA in TGF-β-activated NRK-49F fibroblasts; type: cell-based, rat; settings: Rattus norvegicus, NRK-49F, compound 0.5 mM
Protocol: as §1, §2

[4] = tested on: bleomycin-induced pulmonary fibrosis mouse model; experiment: Bleomycin-induced pulmonary fibrosis mouse model: body weight and lung histology; type: in vivo, mouse (male C57BL6)
Protocol: Intratracheal instillation of the anticancer drug bleomycin into the mouse results in acute inflammation followed by a chronic fibrotic response. Therefore, evaluation of candidate antifibrotic drugs such as Compound I can be undertaken by treatment of the mice at appropriate time points and histologic, biochemical and cellular readouts may be used to monitor candidate drug efficacy in this model.
Male C57BL6 mice are administered intratracheal instillation of bleomycin sulphate (0.025 U) at day 0, randomized and administered Compound I (oral administration, 100 mg/kg and 200 mg/kg) on day 7 to day 20.
Lesions score was evaluated using HEP (Hemalun with Eosin/Ploxine) and Masson's trichrome staining. Lesions score was recorded as 1) Consolidation as shown by disrupted lung architecture (cellular and/or fibrosis) and 2) Alveolar wall as shown by thickness and shrinking outside of consolidated area.
It was therefore evaluated side-by-side with Compound I in the bleomycin-induced pulmonary fibrosis mouse model by the same protocol described in Example 4 above. Compound I (200 mg/kg) and pirfenidone (400 mg/kg) were orally administered either alone or in combination.
Lesions score was evaluated using HEP (Hemalun with Eosin/Ploxine) and Masson's trichrome staining and recorded as 1) Consolidation as shown by disrupted lung architecture (cellular and/or fibrosis), and 2) Alveolar wall as shown by thickness and shrinking outside of consolidated area.
The lesions score as determined by the percentage of leukocyte infiltration (inflammatory zone) multiplied by the percentage of collagen found in the leukocyte infiltrate was quantified by histomorphometry using Masson's trichrome staining.
Visual grading of pulmonary fibrosis was also determined according to Ashcroft's score. Briefly, the entire fields of each lung section were read by a blinded examiner, and each field was visually graded from 0 to 8. Criteria for grading lung fibrosis were as follows: Grade 0=normal lung; Grade 1=minimal fibrous thickening of alveolar or bronchiolar walls; Grade 3=moderate thickening of walls without obvious damage to lung architecture; Grade 5=increased fibrosis with definitive damage to lung structure and formation of fibrous bands or small fibrous masses; Grade 7=severe distortion of structure and large fibrous area; Grade 8=total fibrous obliteration of lung fields.

Compound: CCCCCc1cccc(CC(=O)[O-])c1.[Na+] [Compound I, Sodium Salt of 3-pentylphenylacetic acid]
- collagen score in liver (Masson's Trichrome staining) ([1]; CCl4 16 weeks, oral 200 mg/kg daily, FIG. 20): significant reduction
- collagen deposition and bridging formation in liver (photomicrographs) ([1]; CCl4 16 weeks, oral 200 mg/kg daily, FIG. 21): significant reduction of collagen deposition and bridging formation
- collagen content in liver (histomorphometry, Masson's trichrome) ([1]; CCl4 twice a week for 8 weeks, oral 100 and 200 mg/kg every day, day 1 to day 58, FIG. 22): significant reduction
- hydroxyproline level in liver ([1]; CCl4 twice a week for 16 weeks, oral 200 mg/kg every day, day 1 to day 113, FIG. 19): significant reduction
- inhibition at 500 µM [2]: 86%
- inhibition at 500 µM (α-SMA mRNA in NHDF cells): 99%
- inhibition at 500 µM [3]: 85%
- body weight loss ([4]; oral 200 mg/kg, day 7 to day 20, FIG. 1): reduced this body weight loss
- recovery of the body weight loss ([4]; oral 100 and 200 mg/kg vs vehicle (Bleo), FIG. 1 legend): recovery of the body weight loss
- histological lesions score of lungs (HEP and Masson's trichrome) ([4]; oral 100 and 200 mg/kg, day 7 to day 20, FIG. 2): significant reduction of lesions; also recorded: reduced histological lesions in a dose-dependent manner
- lesions and fibrosis in lungs (photomicrographs) ([4]; oral 100 and 200 mg/kg, FIG. 3): reduced lesions and fibrosis in lungs
- lesions score: percentage of leukocyte infiltration multiplied by percentage of collagen in the leukocyte infiltrate (histomorphometry, Masson's trichrome) ([4]; oral Compound I 200 mg/kg, FIG. 9): significantly reduced
- percentage of lungs affected by bleomycin ([4]; oral, Compound I 200 mg/kg, pirfenidone 400 mg/kg, alone or combined, FIG. 7): lower
- histological lesion score of lungs (HEP and Masson's trichrome) ([4]; oral, Compound I 200 mg/kg, pirfenidone 400 mg/kg, alone or combined, FIG. 8): significantly reduced histological lesions
- visual grading of pulmonary fibrosis (Ashcroft's score) ([4]; oral, Compound I 200 mg/kg, pirfenidone 400 mg/kg, alone or combined, FIG. 11): reduced
- lesions and fibrosis in lungs (photomicrographs stained with HEP) ([4]; oral, Compound I 200 mg/kg, pirfenidone 400 mg/kg, FIG. 10): reduced lesions and fibrosis in lungs

Source: patent publication US10450258B2, “Substituted aromatic compounds for the treatment of pulmonary fibrosis, liver fibrosis, skin fibrosis and cardiac fibrosis” (PROMETIC PHARMA SMT LIMITED, priority 2013, dated 2019)
